What was measured:
Type in all cases: biochemical
[1] = target: T1, recombinant AMPK complex (myc-α1:β1:γ1) (Rattus norvegicus, UniProt P80386); assay: recombinant wild-type AMPK expressed in CCL13 cells, assayed in anti-myc immunoprecipitates; conditions: 20 mM; Figure 5D
T1 construct: recombinant AMPK complex (myc-α1:β1:γ1) containing full-length (1–270) or truncated β1 subunit lacking the GBD (172–270); made in house; host or cells: human CCL13 cells, co-transfected; isolated by anti-myc immunoprecipitation
T1 sequence (P80386 whole entry, the tested form may be a part): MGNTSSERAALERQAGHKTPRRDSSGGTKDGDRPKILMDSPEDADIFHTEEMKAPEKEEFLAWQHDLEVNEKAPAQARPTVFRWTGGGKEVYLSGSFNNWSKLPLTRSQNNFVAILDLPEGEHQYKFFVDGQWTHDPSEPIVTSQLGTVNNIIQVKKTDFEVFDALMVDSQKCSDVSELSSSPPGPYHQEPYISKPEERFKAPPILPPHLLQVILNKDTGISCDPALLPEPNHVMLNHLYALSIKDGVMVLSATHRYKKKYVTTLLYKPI
T1 sequence (P54645 13-559 partner limits assumed): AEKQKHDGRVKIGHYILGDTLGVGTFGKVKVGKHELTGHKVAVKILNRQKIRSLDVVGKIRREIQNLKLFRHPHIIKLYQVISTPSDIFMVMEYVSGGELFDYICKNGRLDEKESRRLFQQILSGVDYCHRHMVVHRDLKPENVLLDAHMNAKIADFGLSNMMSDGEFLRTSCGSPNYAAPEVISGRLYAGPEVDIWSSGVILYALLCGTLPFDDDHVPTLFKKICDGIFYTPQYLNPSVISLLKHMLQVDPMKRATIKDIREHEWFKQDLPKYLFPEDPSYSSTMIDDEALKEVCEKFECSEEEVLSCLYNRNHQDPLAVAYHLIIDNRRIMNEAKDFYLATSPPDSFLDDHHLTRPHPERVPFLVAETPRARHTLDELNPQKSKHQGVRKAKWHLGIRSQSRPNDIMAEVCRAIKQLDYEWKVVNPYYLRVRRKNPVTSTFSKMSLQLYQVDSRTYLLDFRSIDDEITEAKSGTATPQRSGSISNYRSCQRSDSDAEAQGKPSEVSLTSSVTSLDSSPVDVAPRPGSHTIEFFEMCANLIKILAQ
T1 sequence (P80385 whole entry partner, the tested form may be a part): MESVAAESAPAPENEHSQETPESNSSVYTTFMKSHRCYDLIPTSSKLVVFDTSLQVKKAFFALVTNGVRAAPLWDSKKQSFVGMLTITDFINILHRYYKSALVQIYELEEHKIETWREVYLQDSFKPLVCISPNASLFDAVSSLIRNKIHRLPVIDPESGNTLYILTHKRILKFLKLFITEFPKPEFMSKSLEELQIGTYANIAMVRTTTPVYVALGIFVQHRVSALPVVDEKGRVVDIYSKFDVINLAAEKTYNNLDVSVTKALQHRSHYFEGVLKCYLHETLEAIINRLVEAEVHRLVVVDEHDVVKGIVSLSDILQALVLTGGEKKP
Description: Figure 2 Allosteric Inhibition of AMPK by Different Glycogen Preparations (A) Concentration dependence of inhibition of native rat liver AMPK by preparations of bovine and rat liver glycogen; glycogen concentrations expressed as glucose produced after total hydrolysis. Data were fitted to an IC50 equation (see Supplemental Experimental Procedures), and curves were generated using the estimated best-fit parameters. (B) Concentration dependence of inhibition of native rat liver AMPK by bovine liver glycogen in the presence and absence of 200 μM AMP; curves were generated as in (A). (C) Inhibition by bovine liver glycogen of recombinant AMPK complex (myc-α1:β1:γ1) containing full-length (1–270) or truncated β1 subunit lacking the GBD (172–270). Complexes were expressed in CCL13 cells and purified by immunoprecipitation prior to assay with or without glycogen (200 mM glucose equivalents). Data are means ± SEM (n = 3). ^∗Activity different from control without glycogen by t test (p < 0.05). […] Results are expressed as percentages of the activity in controls without glycogen, and data are mean ± SEM (n = 3). […]

[2] = target: T2, rat AMPK-α1 kinase domain (Rattus norvegicus, UniProt P54645, T183D); assay: kinase assay of bacterially expressed α1 kinase domain; conditions: bacterially expressed (GST fusion; T172D mutant); data not shown
T2 construct: a bacterially expressed GST fusion of the rat AMPK-α1 kinase domain; GST; made in house; host or cells: bacteria
T2 sequence (P54645 27-279 T183D): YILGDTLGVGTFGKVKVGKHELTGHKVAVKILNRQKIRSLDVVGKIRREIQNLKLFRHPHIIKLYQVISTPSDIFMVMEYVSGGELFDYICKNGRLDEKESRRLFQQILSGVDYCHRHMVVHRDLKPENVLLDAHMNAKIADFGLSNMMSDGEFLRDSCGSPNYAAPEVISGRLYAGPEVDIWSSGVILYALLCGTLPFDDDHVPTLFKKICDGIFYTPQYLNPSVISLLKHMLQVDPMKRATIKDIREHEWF

native rat liver AMPK = native rat liver AMPK (Rattus norvegicus, UniProt P80386); assay: AMPK kinase assay (SAMS peptide), native rat liver AMPK in solution; conditions: oligosaccharides; read-out: IC50 / half-maximal effect, inhibition of AMPK
Sequence of native rat liver AMPK (P80386 2-270): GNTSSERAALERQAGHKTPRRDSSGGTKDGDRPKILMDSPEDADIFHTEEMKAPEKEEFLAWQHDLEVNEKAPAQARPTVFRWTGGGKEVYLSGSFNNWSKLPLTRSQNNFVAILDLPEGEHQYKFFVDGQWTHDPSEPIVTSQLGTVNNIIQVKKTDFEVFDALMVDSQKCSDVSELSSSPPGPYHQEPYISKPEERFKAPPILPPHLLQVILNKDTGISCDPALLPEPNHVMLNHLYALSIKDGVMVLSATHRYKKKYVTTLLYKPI
Sequence of native rat liver AMPK (P54645 whole entry partner): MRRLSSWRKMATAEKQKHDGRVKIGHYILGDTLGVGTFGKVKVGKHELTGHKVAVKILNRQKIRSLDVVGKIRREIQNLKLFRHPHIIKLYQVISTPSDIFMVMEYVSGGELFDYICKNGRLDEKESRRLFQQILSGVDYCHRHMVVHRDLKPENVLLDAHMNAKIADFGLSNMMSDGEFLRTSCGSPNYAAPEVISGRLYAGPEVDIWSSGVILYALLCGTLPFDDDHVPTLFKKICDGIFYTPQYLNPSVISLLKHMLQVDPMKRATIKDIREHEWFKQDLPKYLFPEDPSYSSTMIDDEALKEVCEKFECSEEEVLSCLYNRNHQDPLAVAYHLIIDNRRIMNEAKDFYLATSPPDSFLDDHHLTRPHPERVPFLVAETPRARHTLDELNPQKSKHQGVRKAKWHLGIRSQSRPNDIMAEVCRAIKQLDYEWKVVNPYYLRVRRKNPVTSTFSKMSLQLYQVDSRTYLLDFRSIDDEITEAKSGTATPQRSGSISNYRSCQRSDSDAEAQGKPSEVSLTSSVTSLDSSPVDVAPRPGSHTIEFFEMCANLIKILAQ
Sequence of native rat liver AMPK (Q09137 whole entry partner): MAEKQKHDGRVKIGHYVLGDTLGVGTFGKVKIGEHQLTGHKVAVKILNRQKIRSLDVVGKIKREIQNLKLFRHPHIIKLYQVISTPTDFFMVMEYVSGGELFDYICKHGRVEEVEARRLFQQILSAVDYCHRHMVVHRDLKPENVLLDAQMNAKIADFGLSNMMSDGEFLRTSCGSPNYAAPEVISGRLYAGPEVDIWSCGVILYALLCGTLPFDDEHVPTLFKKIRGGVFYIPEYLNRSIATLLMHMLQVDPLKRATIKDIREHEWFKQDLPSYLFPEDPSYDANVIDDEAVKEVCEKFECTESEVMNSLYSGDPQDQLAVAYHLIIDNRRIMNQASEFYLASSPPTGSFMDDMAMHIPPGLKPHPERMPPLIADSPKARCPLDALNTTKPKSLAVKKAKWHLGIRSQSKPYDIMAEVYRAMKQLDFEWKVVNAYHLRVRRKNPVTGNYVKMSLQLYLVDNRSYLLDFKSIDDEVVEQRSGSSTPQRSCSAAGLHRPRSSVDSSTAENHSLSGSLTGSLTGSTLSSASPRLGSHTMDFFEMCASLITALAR
Sequence of native rat liver AMPK (P80385 whole entry partner): as the sequence (P80385 whole entry partner, the tested form may be a part) above
Protocol: We next tested the effect of glycogen on the activity of the native AMPK complex purified from rat liver ([Hawley et al., 1996]). […] The bovine liver glycogen inhibited AMPK completely with an IC50 (concentration causing half-maximal inhibition) of 30 ± 9 mM glucose equivalents (Figure 2A).
Figure 2 Allosteric Inhibition of AMPK by Different Glycogen Preparations (A) Concentration dependence of inhibition of native rat liver AMPK by preparations of bovine and rat liver glycogen; glycogen concentrations expressed as glucose produced after total hydrolysis. Data were fitted to an IC50 equation (see Supplemental Experimental Procedures), and curves were generated using the estimated best-fit parameters. (B) Concentration dependence of inhibition of native rat liver AMPK by bovine liver glycogen in the presence and absence of 200 μM AMP; curves were generated as in (A). (C) Inhibition by bovine liver glycogen of recombinant AMPK complex (myc-α1:β1:γ1) containing full-length (1–270) or truncated β1 subunit lacking the GBD (172–270). Complexes were expressed in CCL13 cells and purified by immunoprecipitation prior to assay with or without glycogen (200 mM glucose equivalents). Data are means ± SEM (n = 3). ^∗Activity different from control without glycogen by t test (p < 0.05). (D) Inhibition by bovine liver glycogen (200 mM glucose equivalents) of purified, native rat liver AMPK (a mixture of α1β1γ1 and α2β1γ1 complexes) that had been recovered by immunoprecipitation (IP) using anti-α1, anti-α2, or a mixture of anti-α1/-α2 antibodies or assayed in solution without immunoprecipitation. Results are expressed as percentages of the activity in controls without glycogen, and data are mean ± SEM (n = 3). (E) Absorption spectra of bovine and rat liver glycogen preparations in complex with iodine. […]
Purification of Native Rat Liver, AMPK, Recombinant AMPK, and AMPK Assays AMPK was purified from rat liver as far as the gel filtration step (Hawley et al., 1996). The kinase was assayed using the SAMS peptide (Davies et al., 1989). IC50 values for inhibition were estimated by fitting data using GraphPad Prism to the equation: Activity = Residual + Maximum - (Maximum × [Inhibitor]/(IC50+[Inhibitor])) where Residual is the activity in the presence of maximal inhibition, Maximum is the maximal inhibition and [inhibitor] is the concentration of the inhibitory molecule. For recombinant AMPK, constructs encoding myc-tagged α1, β1 and γ1 subunits of AMPK were co-transfected into CCL13 cells using modifications of previous methods (Woods et al., 1996). DNA (10 µg) was dissolved in sterile water (450 µl) to which 50 μl of 2.5 M CaCl2 was added, and the solution vortexed for 1 min. […]

In the case of OC[C@H]1O[C@H](OC[C@H]2OC(O)[C@H](O)[C@@H](O)[C@@H]2O)[C@H](O)[C@@H](O)[C@@H]1O (stereo partly drawn) [isomaltose], the “inhibition of wild-type recombinant α1β1γ1” value [1] is reported as “inhibited”, the “inhibition of isolated α1 kinase domain” value [2] is reported as “did not inhibit” and the IC50 (native rat liver AMPK) is reported as 16 mM.

Source: paper PMC2642990, “The Glycogen-Binding Domain on the AMPK β Subunit Allows the Kinase to Act as a Glycogen Sensor” (Cell Metabolism, 2009)
